Source: ChEMBL document CHEMBL4689842, “EUbOPEN Chemogenomics Library wave 1” (2021)

Legend:
Assay type in all cases: toxicity, cell-based
Fibroblast = assay: Incucyte cell viability with human fibroblast; conditions: 10 µM, compound concentration 10 uM
U2OS = assay: Incucyte cell viability with U2OS; conditions: human, 10 µM, compound concentration 10 uM
HEK-293T = assay: Incucyte cell viability with HEK293T; conditions: human, 10 µM, compound concentration 10 uM
[1] = 0 h, replicate number 1, timepoint 0 hours
[2] = 12 h, replicate number 2, timepoint 12 hours
[3] = 18 h, replicate number 1, timepoint 18 hours
[4] = 18 h, replicate number 2, timepoint 18 hours
[5] = 24 h, replicate number 1, timepoint 24 hours
[6] = 24 h, replicate number 2, timepoint 24 hours
[7] = 0 h, replicate number 2, timepoint 0 hours
[8] = 6 h, replicate number 1, timepoint 6 hours
[9] = 12 h, replicate number 1, timepoint 12 hours
[10] = 6 h, replicate number 2, timepoint 6 hours
Also: filed as whole numbers so only -1 and 0 and 1 occur.

Structure (SMILES) | Growth Rate (Fibroblast; [1]) | Growth Rate (Fibroblast; [2]) | Growth Rate (Fibroblast; [3]) | Growth Rate (Fibroblast; [4]) | Growth Rate (Fibroblast; [5]) | Growth Rate (U2OS; [7]) | Growth Rate (U2OS; [9]) | Growth Rate (U2OS; [3]) | Growth Rate (U2OS; [5]) | Growth Rate (HEK-293T; [1]) | Growth Rate (HEK-293T; [10]) | Growth Rate (HEK-293T; [2]) | Growth Rate (HEK-293T; [5]) | Growth Rate (Fibroblast; [8]) | Growth Rate (Fibroblast; [9]) | Growth Rate (U2OS; [1]) | Growth Rate (U2OS; [10]) | Growth Rate (HEK-293T; [9]) | Growth Rate (HEK-293T; [3]) | Growth Rate (U2OS; [4]) | other results
Nc1cc(F)ccc1NC(=O)/C=C/c1cnn(C/C=C/c2ccccc2)c1 | 0 | 0 | 1 | 0 | 1 | 1 | 1 | 0 | 0 | 0 | 0 | 1 | 1 | – | – | – | – | – | – | – | Growth Rate (Fibroblast; [6]): 0; Growth Rate (U2OS; [8]): 0; Growth Rate (HEK-293T; [4]): 1; Growth Rate (HEK-293T; [6]): 0
C[C@]12CCC(=O)C=C1CC[C@@H]1[C@@H]2[C@@H](O)C[C@]2(C=O)[C@@H](C(=O)CO)CC[C@@H]12 [ALDOSTERONE] | 0 | 0 | 1 | 0 | 1 | – | 1 | 1 | 1 | 0 | 1 | 0 | 1 | 0 | 1 | 0 | 1 | 1 | 1 | – | Growth Rate (Fibroblast; [7]): 1
COc1cc2c(CCNC(C)=O)c[nH]c2cc1Cl | 0 | – | 1 | – | 1 | – | 1 | 0 | 1 | 0 | 0 | 0 | 1 | 1 | 1 | 0 | 1 | 1 | 1 | 1 | Growth Rate (HEK-293T; [8]): 1
Cc1nc(-c2ccc(C(F)(F)F)cc2)sc1COc1ccc([C@H](CC(=O)O)c2ccon2)cc1 | 0 | 0 | 1 | 0 | 0 | 0 | 0 | 0 | 0 | – | 1 | – | 0 | 0 | 1 | – | 0 | 0 | 0 | 1 | Growth Rate (U2OS; [2]): 1; Growth Rate (U2OS; [6]): 1; Growth Rate (HEK-293T; [7]): 0; Growth Rate (HEK-293T; [8]): 0
